Test results: the supplement of paper PMC10307832

Columns and labels:
Experiment in all cases: relative viability (nuclei count vs DMSO), 5 days (fraction); higher = more cells survive
[1] = compound: CN[C@@H]1C[C@H]2O[C@@](C)([C@@H]1OC)n1c3ccccc3c3c4c(c5c6ccccc6n2c5c31)C(=O)NC4 [Staurosporine] + CC1(C)CCC(c2ccc(Cl)cc2)=C(CN2CCN(c3ccc(C(=O)NS(=O)(=O)c4ccc(N[C@H](CCN5CCOCC5)CSc5ccccc5)c(S(=O)(=O)C(F)(F)F)c4)cc3)CC2)C1 [Navitoclax] (partner 0.5 µM)
Method in brief: (§1)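 Relative viability divides the nuclei count in treated wells by that in vehicle wells. Lung cancer cell lines were seeded in 1536-well plates, dosed by pin tool the next day, and fixed and stained after 5 days in one step with final 0.05% Triton X-100, 1% formaldehyde and 1 ug/ml Hoechst. Dosing was a single drug or a fixed anchor-drug dose plus five library-drug doses (not always all listed) in √10 steps, and values are medians of duplicate plates imaged at 4×.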

5-Fluorouracil + AZD7762 = compound: O=c1[nH]cc(F)c(=O)[nH]1 [5-Fluorouracil] + NC(=O)Nc1cc(-c2cccc(F)c2)sc1C(=O)N[C@H]1CCCNC1 [AZD7762] (partner 0.2 µM)
Method in brief: as §1

Sulindac + Dasatinib = compound: CC1=C(CC(=O)O)c2cc(F)ccc2/C1=C\c1ccc([S+](C)[O-])cc1 [Sulindac] + Cc1nc(Nc2ncc(C(=O)Nc3c(C)cccc3Cl)s2)cc(N2CCN(CCO)CC2)n1 [Dasatinib] (partner 0.075 µM)
Method in brief: as §1

[2] = compound: CN[C@@H]1C[C@H]2O[C@@](C)([C@@H]1OC)n1c3ccccc3c3c4c(c5c6ccccc6n2c5c31)C(=O)NC4 [Staurosporine] + CC(=O)c1c(C)c2cnc(Nc3ccc(N4CCNCC4)cn3)nc2n(C2CCCC2)c1=O [Palbociclib] (partner 0.5 µM)
Method in brief: as §1

Cell Line	relative viability ([1]; first compound 0.005 µM)	relative viability ([1]; first compound 0.05 µM)	relative viability ([1]; first compound 0.1581 µM)	relative viability ([1]; first compound 0.5 µM)	relative viability (5-Fluorouracil + AZD7762; first compound 0.02 µM)	relative viability (5-Fluorouracil + AZD7762; first compound 0.2 µM)	relative viability (5-Fluorouracil + AZD7762; first compound 0.6325 µM)	relative viability (5-Fluorouracil + AZD7762; first compound 2 µM)	relative viability (Sulindac + Dasatinib; first compound 0.08 µM)	relative viability (Sulindac + Dasatinib; first compound 0.253 µM)	relative viability (Sulindac + Dasatinib; first compound 0.8 µM)	relative viability (Sulindac + Dasatinib; first compound 2.53 µM)	relative viability (Sulindac + Dasatinib; first compound 8 µM)	relative viability ([2]; first compound 0.005 µM)	relative viability ([2]; first compound 0.01581 µM)	relative viability ([2]; first compound 0.05 µM)	relative viability ([2]; first compound 0.1581 µM)	relative viability ([2]; first compound 0.5 µM)	relative viability ([1]; first compound 0.01581 µM)
HCC-827	1.06	0.768	0.725	0.488	0.164	0.178	0.166	0.147	0.348	0.412	0.251	0.319	0.338	0.59	0.401	0.299	0.226	0.225	
HOP-62	0.957	0.152	0.121	0.104	0.636	1.06	0.522	0.473	0.696	0.652		0.718	0.646	0.334	0.194	0.116	0.106	0.0933	0.528
IA-LM	0.242	0.257	0.0433	0.0163															
LC-2-ad	0.473	0.172	0.0798	0.0689	0.922	0.536	0.331	0.253	0.584	0.718	0.337	0.418	0.839	0.537	0.328	0.279	0.168	0.109	0.202
LCLC-103H					0.734	0.758	0.546	0.381	0.5	0.477	0.376	0.458	0.508	0.507	0.43	0.393	0.29	0.253	
NCI-H358					0.595	0.505	0.477	0.293	0.125	0.128	0.191	0.155	0.19	0.107	0.081	0.102	0.0861	0.0814	
NCI-H520	1.15	0.408	0.204	0.13					0.241	0.201		0.204	0.226	0.272	0.262	0.159	0.116	0.12	0.935
NCI-H522					0.948	0.98	0.755	0.916	0.841	0.962	0.891	0.917	0.908	1.19	0.877		0.638	0.502	
NCI-H596	1.11	0.322	0.179	0.0954	1.23	0.981	0.371	0.356	0.563	0.56	0.6	0.666	0.641						0.665
NCI-H650					0.883	0.464	0.328	0.422	0.52	0.462	0.469	0.466	0.47	0.262	0.208	0.224	0.234	0.199	
NCI-H661									0.966	0.842	0.759	0.807	1.08	0.418	0.337	0.329	0.26	0.192	
NCI-H1299	1.06	0.459	0.239	0.199															0.739
